Entries after “also recorded” stand apart in the source; their conditions may differ.
Experiments:
[1] = test system: APPsw+ mice; test: Open Field testing after intranasal SDPC; type: in vivo, mouse; settings: 10 days intranasal low dose; does not reach significance
Protocol: FIGS. 4A-4D. 10 days treatment with low dose SDPC. (A) After 10 days treatment (Tx) with low dose phosphatidylcholine (PC) containing docosahexaenoyl (22:6) and stearoyl (18:0) acyl chains, 18:0-22:6 PC; 1-stearoyl-2-docosahexaenoyl-sn-glycero-3-phosphocholine (CAS Number 59403-52-0; Synonyms: 1-octadecanoyl-2-(4Z,7Z,10Z,13Z,16Z,19Z-docosahexaenoyl)-sn-glycero-3-phosphocholine and PC(18:0/22:6(4Z,7Z,10Z,13Z,16Z,19Z))) (SDPC) intranasally, nesting score was assessed as described before (114). The number of nestlettes (from 3 initially placed in cage) was estimated and exact weight of remaining nestlettes was determined in grams (g) from initial 3 nestlettes (approximately 2 g). (B) Activity during novel object recognition (NOR) training was assessed after 10 days intranasal SDPC. Grooming behavior, free rearing, wall rearing and center crossing events are shown and were summed in total events. (C) Time spent with each identical object during NOR training. (D) Activity during Open Field testing 24 hours after NOR training (note, no difference in novel object discrimination (NOD) index was found. Standard error is shown for means of Saline treated APPsw+(control) (n=4); SDPC treated APPsw+(n=5) and wild type receiving no treatment (n=4). Significance was determined for […] using Student's t-test. […]

[2] = test system: APPsw+ mice; test: Nesting behavior after intranasal SDPC; type: in vivo, mouse; settings: 10 days intranasal low dose 0.5 mg/kg every other day, vs saline treated APPsw+
Protocol: FIGS. 4A-4D. 10 days treatment with low dose SDPC. (A) After 10 days treatment (Tx) with low dose phosphatidylcholine (PC) containing docosahexaenoyl (22:6) and stearoyl (18:0) acyl chains, 18:0-22:6 PC; 1-stearoyl-2-docosahexaenoyl-sn-glycero-3-phosphocholine (CAS Number 59403-52-0; Synonyms: 1-octadecanoyl-2-(4Z,7Z,10Z,13Z,16Z,19Z-docosahexaenoyl)-sn-glycero-3-phosphocholine and PC(18:0/22:6(4Z,7Z,10Z,13Z,16Z,19Z))) (SDPC) intranasally, nesting score was assessed as described before (114). The number of nestlettes (from 3 initially placed in cage) was estimated and exact weight of remaining nestlettes was determined in grams (g) from initial 3 nestlettes (approximately 2 g). (B) Activity during novel object recognition (NOR) training was assessed after 10 days intranasal SDPC. […] (D) Activity during Open Field testing 24 hours after NOR training (note, no difference in novel object discrimination (NOD) index was found. Standard error is shown for means of Saline treated APPsw+(control) (n=4); SDPC treated APPsw+(n=5) and wild type receiving no treatment (n=4). Significance was determined for […] using Student's t-test.
FIGS. 5A-5B. […] (A) After 30 days treatment (Tx) with low dose SDPC intranasally, nesting score was assessed as described (114). […] (B) Activity during NOR training was assessed after 10 days intranasal SDPC. […] Significance was determined for […] using Student's t-test. […]

[3] = test system: APPsw+ mice; test: Novel object recognition (NOR) and activity during NOR training after intranasal SDPC; type: in vivo, mouse; settings: 30 days intranasal escalated dose (0.5 then 2 mg/kg), SDPC vs saline treated APPsw+
[4] = test system: APPsw+ mice; test: as above; type: in vivo, mouse
Protocol: FIGS. 4A-4D. 10 days treatment with low dose SDPC. (A) After 10 days treatment (Tx) with low dose phosphatidylcholine (PC) containing docosahexaenoyl (22:6) and stearoyl (18:0) acyl chains, 18:0-22:6 PC; 1-stearoyl-2-docosahexaenoyl-sn-glycero-3-phosphocholine (CAS Number 59403-52-0; Synonyms: 1-octadecanoyl-2-(4Z,7Z,10Z,13Z,16Z,19Z-docosahexaenoyl)-sn-glycero-3-phosphocholine and PC(18:0/22:6(4Z,7Z,10Z,13Z,16Z,19Z))) (SDPC) intranasally, nesting score was assessed as described before (114). The number of nestlettes (from 3 initially placed in cage) was estimated and exact weight of remaining nestlettes was determined in grams (g) from initial 3 nestlettes (approximately 2 g). (B) Activity during novel object recognition (NOR) training was assessed after 10 days intranasal SDPC. Grooming behavior, free rearing, wall rearing and center crossing events are shown and were summed in total events. (C) Time spent with each identical object during NOR training. (D) Activity during Open Field testing 24 hours after NOR training (note, no difference in novel object discrimination (NOD) index was found. Standard error is shown for means of Saline treated APPsw+(control) (n=4); SDPC treated APPsw+(n=5) and wild type receiving no treatment (n=4). Significance was determined for p>0.05 using Student's t-test.
FIGS. 5A-5B. Nesting and activity after 30 days treatment with escalating dose SDPC. (A) After 30 days treatment (Tx) with low dose SDPC intranasally, nesting score was assessed as described (114). The number of nestlettes remaining (from 3 initially placed in cage) was estimated and exact weight of remaining nestlettes was determined in grams (g remaining) from initial 3 nestlettes (approximately 2 g). (B) Activity during NOR training was assessed after 10 days intranasal SDPC. Grooming behavior, free rearing, wall rearing and center crossing events were summed in total events. Standard error is shown for means of Saline treated APPsw+(control) (n=4); SDPC treated APPsw+(n=5) and wild type receiving no treatment (n=4). Significance was determined for […] using Student's t-test.
FIGS. 6A-6B. 30 days treatment with escalating dose SDPC. (A) Mice were placed in a box with two identical objects for 10 minutes on the training day 1. […] One object was replaced with a novel object for testing (NOD index). The same data is shown to scale in FIG. 6B (Testing (immediate)). Twenty-four hours later (Testing (24 hours)), mice were placed in the same context with one of the original identical objects (Familiar) and a second novel object (Novel). The time spent with each object was recorded. (B) For testing, novel object discrimination (NOD index) is assessed using the equation [(time novel)/(time familiar+time novel)].
NOD index of 0.5 represents equal time with each object. NOD>0.5 represents more time spent with novel object. Standard error is shown for means of Saline treated APPsw+(control) (n=4); SDPC treated APPsw+(n=5) and wild type receiving no treatment (n=4). Significance was determined for p>0.05 using Student's t-test.
SDPC was obtained from Avanti Polar Lipids (850472C) in chloroform, dried under vacuum conditions and resuspended in 0.9% saline (0.9% sodium chloride injection, USP, NDC 0409-7983-61, Hospira) containing 0.2% (weight:volume) methyl cellulose (average Mn 40,000, viscosity: 400 cP, CAS 9004-67-5, Sigma-Aldrich 274429) to aid in solubilization. A control solution of 0.9% saline containing 0.2% methyl cellulose was prepared at the same time without SDPC. A concentration of 3 mg/ml was used for doses 1-15 and 12 mg/ml was used for doses 16-18 (FIG. 3). Brief (3-5 minutes) bath sonication was used to improve solubility of 12 mg/ml concentration.
Mice were treated for 10 days at a low dose of SDPC intranasally administered 2.5 uL each nostril (5 μL total dose) for 0.5 mg/kg every other day assuming average mouse weight of 30 g (0.03 kg) (FIG. 3). […]

[5] = target: T1, Aβ42 peptide fluorescently tagged with FAM (Homo sapiens, UniProt P05067); test: Lipid binding assay: Aβ42-FAM on lipid-coated maleic anhydride plates
T1 construct: SensoLyte Fluorescent β-Amyloid1-42 Sampler Kit, Anaspec; purchased Anaspec SensoLyte Fluorescent β-Amyloid1-42 Sampler Kit (catalogue number not given)
Source text: Maleic Anhydride Activated plates (Pierce Amine-binding, 96-well plates, Thermo Scientific) were washed in wash buffer (PBS: Phosphate buffered saline, 0.15 M sodium chloride, pH 7.2 containing 0.05% Tween-20 Detergent, PBST, Thermo Scientific) 4 times to activate reactive maleic anhydride functional group. Amine containing lipids were PE containing docosahexaenoyl (22:6) and stearoyl (18:0) acyl chains (22:6/18:0 PE) or two stearoyl acyl chains (di18:0 PE) were from Avanti Polar Lipids. 22:6/18:0 PE was obtained in chloroform, dried down and solubilized at 200 pmol/μL in 1% n-octylglucoside (NOG, Santa Cruz) in PBS and sonicated for 5 minutes. di18:0 PE was obtained as a powder, solubilized at 200 pmol/μl in 1% NOG and bath sonicated for 5 minutes. […] Plates were then washed 4 times in PBST and fluorescence was detected using Tecan Infinite 200 at wavelengths 494/521 (excitation, emission) using the Optimal Gain setting. […]
(§1) Lipid containing long chain polyunsaturated fatty acid 22:6, docosahexaenoic acid (DHA) and an amine containing headgroup, phosphatidylethanoloamine (PE) was bound to maleic anhydride activated plates which bind to free primary amine functional groups at neutral and alkaline pH. […] Specific binding was calculated by subtracting background binding of di18:0 PE.

[6] = target: Aβ:ApoE:lipid binding complex (Homo sapiens, UniProt P05067); test: ApoE binding assay: fluorescent Aβ42 on ApoE-coated plates in presence of lipid; parameters: SensoLyte Fluorescent β-Amyloid1-42 Sampler Kit, Anaspec; HiLyte Fluor (fluorescent label); purchased ApoE: rPeptide; labelled Aβ: Anaspec; settings: only at very high concentrations of Aβ
Protocol: Plates were prepared as above and incubated with a constant amount of apolipoprotein E (ApoE, rPeptide) at 12.5 pmol/well FIG. 2A or 4 pmol/well FIG. 2B for 1 hour at room temperature with shaking. Plates were then blocked for 1 hour and washed with PB ST. Aβ labled with HiLyte (Anaspec) was prepared as above and mixed with increasing amount of lipid in constant concentration of NOG (0.0034%) in SuperBlock Blocking buffer and incubated overnight at 4° C. Binding was read as above at 503/528 excitation/emission).
Assays were done in triplicate wells and reported as mean+/−standard error. Binding kinetics and best fit curve fitting were accomplished using Prism Graphpad software.
Specific binding was determined by subtracting non-specific binding to the plate in absence of ApoE (no ApoE, 0).

[7] = target: T2, Aβ42-FAM bound to lipids containing 22:6 (Homo sapiens, UniProt P05067); test: Competition of Aβ42-FAM binding to plate-bound 22:6 lipid; settings: competitor 5×, 1 μM
T2 construct: SensoLyte Fluorescent β-Amyloid1-42 Sampler Kit, Anaspec; purchased Anaspec SensoLyte Fluorescent β-Amyloid1-42 Sampler Kit (catalogue number not given)
Source text: Maleic Anhydride Activated plates (Pierce Amine-binding, 96-well plates, Thermo Scientific) were washed in wash buffer (PBS: Phosphate buffered saline, 0.15 M sodium chloride, pH 7.2 containing 0.05% Tween-20 Detergent, PBST, Thermo Scientific) 4 times to activate reactive maleic anhydride functional group. Amine containing lipids were PE containing docosahexaenoyl (22:6) and stearoyl (18:0) acyl chains (22:6/18:0 PE) or two stearoyl acyl chains (di18:0 PE) were from Avanti Polar Lipids. […] Plates were then washed 4 times in PBST and fluorescence was detected using Tecan Infinite 200 at wavelengths 494/521 (excitation, emission) using the Optimal Gain setting.
Scrambled Aβ or unlabeled Aβ42 peptides (Anaspec) were diluted to 100 μM as above and then diluted in SuperBlock Blocking buffer to 1 μM, incubated for 1 hour at room temperature. Plates were washed and FAM fluorescence was read as above.
as §1

[8] = 30 days intranasal escalated dose

In the case of `CC/C=C\C/C=C\C/C=C\C/C=C\C/C=C\C/C=C\CCC(=O)O[C@H](COC(=O)CCCCCCCCCCCCCCCCC)COP(=O)([O-])OCC[N+](C)(C)C` [SDPC, 1-stearoyl-2-docosahexaenoyl-sn-glycero-3-phosphocholine], the “activity in the open field test following NOR testing” value [1] is reported as “continued improvement of activity level; also recorded: restored to the level of wild type non-treated mice”, the nesting behavior [2] is reported as “trend toward improvement; also recorded: non-significant trend for improvement” and the “number of wall rears and total activity events” value [3] is reported as “significant improvement”. The “NOR discrimination (NOD index), tested 24 hours after training” value ([4]; 10 days intranasal low dose) was “no discrimination was found; also recorded: no difference”, the “activity during NOR training (wall rearing, free rearing, total activity level)” value ([4]; 10 days intranasal low dose 0.5 mg/kg every other day, vs saline treated APPsw+, 0.5 mg/kg) was “trend toward improvement; also recorded: non-significant trend for improvement” and the “exploration: time spent with identical objects during NOR training” value ([4]; 10 days intranasal low dose 0.5 mg/kg every other day, 0.5 mg/kg) was “trend toward improved exploratory behavior; also recorded: non-significant trend toward exploration activity”. For the same molecule, the “NOR deficits: time spent with a novel object” value [4, 8] was “significant amelioration”, the “novel object discrimination index (NOD index)” value [4, 8] was “significant changes were not observed; also recorded: trend for amelioration” and the “discrimination of one displaced identical object (hippocampal function), training day 2” value ([4]; 30 days intranasal escalating dose) was “no discrimination was determined”.
In the case of `CCCCCCCCCCCCCCCCCC(=O)OC[C@H](COP(=O)(O)OCCN)OC(=O)CCCCCCCCCCCCCCCCC` [di18:0 PE], the “binding of Aβ42-FAM to plate-bound lipid” value ([5]; for di18:0: concentrations 10,000 pmol/well and below) is reported as “very low binding activity”, the “binding of Aβ42-FAM to plate-bound lipid at the highest concentrations” value ([5]; highest lipid concentrations (above 10,000 pmol/well)) is reported as “modest binding” and the “Aβ42-FAM binding to apoE in presence of lipid” value [6] is reported as “only very minimally”.
In the case of “unlabeled Aβ42 peptide: unlabeled Aβ42 peptide (Anaspec) used as competitor”, the “disruption of Aβ42-FAM binding to 22:6 lipid by competitor peptide” value [7] is reported as “competitively disrupted”.
